The source of these data is article PMC3525752 (Bioorganic & medicinal chemistry, 2012).

As a reminder, the pIC50 is −log10 of the IC50, conventionally taken in molar units. A lower pIC50 goes with a high IC50.

pIC50: −log10 of the molar value.

The subject of one test is IκB kinase β. To be noted: cited from earlier work.
The next test deals with Mtb H37Rv. Kind of test: Minimum inhibitory concentration. The following applies: for fold drop/change in potency (MIC) relative to parent compound 1: versus lead 1.
Another test has as its system Mtb. To be noted: in Mtb; cited from earlier work.
Test [1] relates to murine macrophage cell line J774.1. Kind of test: Cytotoxicity by Alamar Blue, 3 days. It counts as cell-based. The following applies: J774.1 cells, two-fold dilutions starting at 60 µM. A general note: Resazurin is reduced to fluorescent resorufin, in cell work by metabolically active cells.

`O=C(Nc1cc(C(F)(F)F)cc(C(F)(F)F)c1)c1cc(Cl)ccc1O` [Compound 1, N-(3,5-bis(trifluoromethyl)phenyl)-5-chloro-2-hydroxybenzamide]: the “inhibition of IκB kinase β” value in the test on IκB kinase β is “potent inhibitor”.
For `O=C(Nc1cc(C(F)(F)F)cc(C(F)(F)F)c1)c1ccccc1O` [Compound 2, N-(3,5-Bis(trifluoromethyl)phenyl)-2-hydroxybenzamide], in the test with Mtb H37Rv, the “fold drop/change in potency (MIC) relative to parent compound 1” value is listed as 2–4 fold.
Still for that read-out and setting: the value for `O=C(Nc1cc(C(F)(F)F)cc(C(F)(F)F)c1)c1cc(F)ccc1O` [Compound 7, N-(3,5-Bis(trifluoromethyl)phenyl)-5-fluoro-2-hydroxy-benzamide] was 2 fold; that for `O=C(Nc1cc(C(F)(F)F)cc(C(F)(F)F)c1)c1cc(Br)ccc1O` [Compound 8, N-(3,5-Bis(trifluoromethyl)phenyl)-5-bromo-2-hydroxybenzamide] was 2 fold.
Turning to `O=C(Nc1cc(C(F)(F)F)cc(C(F)(F)F)c1)c1cc(I)ccc1O` [Compound 9, N-(3,5-Bis(trifluoromethyl)phenyl)-2-hydroxy-5-iodobenzamide], the “fold drop/change in potency (MIC) relative to parent compound 1” value with Mtb H37Rv is 2 fold.
Consider `O=C(Nc1ccccc1)c1cc(Cl)ccc1O` [Compound 26, 5-Chloro-2-hydroxy-N-phenylbenzamide], for which the “fold drop/change in potency (MIC) relative to parent compound 1” value in the test with Mtb H37Rv was 4–8 fold.
In the case of `O=C(Nc1ccccc1C(F)(F)F)c1cc(Cl)ccc1O` [Compound 28, 5-Chloro-2-hydroxy-N-(2-trifluoromethyl-phenyl)-benzamide], in the test on Mtb H37Rv (versus meta-CF3 compound 27), the “fold loss in activity on moving single CF3 from meta to ortho” value is reported as 4–8 fold.
Turning to `O=C(Nc1cccc(F)c1)c1cc(Cl)ccc1O` [Compound 34, 5-Chloro-N-(3-fluorophenyl)-2-hydroxybenzamide], the “fold drop/change in potency (MIC) relative to parent compound 1” value in the test with Mtb H37Rv is listed as 2–4 fold.
Consider `O=C(Nc1cccc(Br)c1)c1cc(Cl)ccc1O` [Compound 35, N-(3-Bromophenyl)-5-chloro-2-hydroxybenzamide], for which the “fold drop/change in potency (MIC) relative to parent compound 1” value in the test on Mtb H37Rv is on record as 2–4 fold.
As for `O=C(Nc1ccc([N+](=O)[O-])cc1Cl)c1cc(Cl)ccc1O` [niclosamide], the “effect on membrane potential and pH homeostasis” value in the test with Mtb is “disruption of membrane potential and pH homeostasis”.
Regarding “N-(3-Bromo-5-(trifluoromethyl)phenyl)-5-chloro-2-hydroxy-benzamide [Compound 74]”, the negative-log IC50 (pIC50) in test [1] is 5.24.
